Source: US7563787B2, “Substituted pyrazole compounds” (Miikana Therapeutics, Inc., priority 2005, dated 2009)

Legend:
Format in all cases: biochemical
recombinant Aurora A = biological target: T1, recombinant Aurora A (Homo sapiens, UniProt O14965); assay: Aurora A (Aurora 2) Inhibition Assay (Z'-Lyte); settings: 100 μM compound; ATP 10 μM; 1 h
T1 construct: purchased Upstate, Lake Placid, N.Y
T1 sequence (O14965 1-403): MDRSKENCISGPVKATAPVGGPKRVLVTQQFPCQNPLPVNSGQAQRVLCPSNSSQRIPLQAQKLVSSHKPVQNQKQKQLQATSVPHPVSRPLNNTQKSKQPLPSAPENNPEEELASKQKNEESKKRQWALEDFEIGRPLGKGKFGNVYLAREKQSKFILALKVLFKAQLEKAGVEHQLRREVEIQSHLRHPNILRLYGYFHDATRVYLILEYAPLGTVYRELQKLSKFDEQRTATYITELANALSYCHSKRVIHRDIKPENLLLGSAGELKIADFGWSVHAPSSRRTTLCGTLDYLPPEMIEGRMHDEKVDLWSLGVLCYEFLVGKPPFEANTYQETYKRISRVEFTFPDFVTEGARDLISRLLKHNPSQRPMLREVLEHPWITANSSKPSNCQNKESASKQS

AKT1 (PKB alpha) = biological target: T2, AKT1 (PKB alpha) (Homo sapiens, UniProt P31749); assay: Kinase Selectivity Assay; settings: read-out: Percent Inhibition at 1 μM; further: ATP at apparent Km or 100 µM
T2 construct: purchased Invitrogen, Carlsbad, Calif
Experimental: (§1) Compounds were assayed for inhibitory activity against a panel of different kinase enzymes at a concentration of 1 μM. Where appropriate, full-length enzymes or catalytically active fragments, with N-terminal or C-terminal His- or GST-tags, were used (Invitrogen, Carlsbad, Calif.). Test compounds were initially diluted to 100× test concentration in 100% DMSO. This 100× concentration was then diluted to a 4× working concentration in Kinase Buffer (50 mM HEPES pH 7.5, 0.01% Brij-35, 10 mM MgCl2, 1 mM EGTA) and 2.5 μL was then added to a low volume NBS, 384-well plate (Corning, Corning, N.Y.). Five μL of a 2× peptide/kinase mixture (Invitrogen, Carlsbad, Calif.), as appropriate (listed in Table 3), was then added and the reaction was then initiated by addition of 2.5 μL of a 4× working concentration of ATP in Kinase Buffer.

AURKB (Aurora B) = biological target: T3, AURKB (Aurora B) (Homo sapiens, UniProt Q96GD4); assay: Kinase Selectivity Assay; settings: read-out: Percent Inhibition at 1 μM; further: ATP at apparent Km or 100 µM
T3 construct: purchased Invitrogen, Carlsbad, Calif
Experimental: as §1

BLK = biological target: T4, BLK (Homo sapiens, UniProt P51451); assay: Kinase Selectivity Assay; settings: read-out: Percent Inhibition at 1 μM; further: ATP at apparent Km or 100 µM
T4 construct: purchased Invitrogen, Carlsbad, Calif
Experimental: as §1

BTK = biological target: T5, BTK (Homo sapiens, UniProt Q06187); assay: Kinase Selectivity Assay; settings: read-out: Percent Inhibition at 1 μM; further: ATP at apparent Km or 100 µM
T5 construct: purchased Invitrogen, Carlsbad, Calif
Experimental: as §1

CDK2/cyclin A = biological target: T6, CDK2/cyclin A (Homo sapiens, UniProt P24941); assay: Kinase Selectivity Assay; settings: read-out: Percent Inhibition at 1 μM; further: ATP at apparent Km or 100 µM
T6 construct: purchased Invitrogen, Carlsbad, Calif
Experimental: as §1

CSF1R (FMS) = biological target: T7, CSF1R (FMS) (Homo sapiens, UniProt P07333); assay: Kinase Selectivity Assay; settings: read-out: Percent Inhibition at 1 μM; further: ATP at apparent Km or 100 µM
T7 construct: purchased Invitrogen, Carlsbad, Calif
Experimental: as §1

EPHA1 = biological target: T8, EPHA1 (Homo sapiens, UniProt P21709); assay: Kinase Selectivity Assay; settings: read-out: Percent Inhibition at 1 μM; further: ATP at apparent Km or 100 µM
T8 construct: purchased Invitrogen, Carlsbad, Calif
Experimental: as §1

EPHB1 = biological target: T9, EPHB1 (Homo sapiens, UniProt P54762); assay: Kinase Selectivity Assay; settings: read-out: Percent Inhibition at 1 μM; further: ATP at apparent Km or 100 µM
T9 construct: purchased Invitrogen, Carlsbad, Calif
Experimental: as §1

FGFR2 = biological target: T10, FGFR2 (Homo sapiens, UniProt P21802); assay: Kinase Selectivity Assay; settings: read-out: Percent Inhibition at 1 μM; further: ATP at apparent Km or 100 µM
T10 construct: full-length enzymes or catalytically active fragments; purchased Invitrogen
Experimental: as §1

FLT1 (VEGFR1) = biological target: T11, FLT1 (VEGFR1) (Homo sapiens, UniProt P17948); assay: Kinase Selectivity Assay; settings: read-out: Percent Inhibition at 1 μM; further: ATP at apparent Km or 100 µM
T11 construct: full-length enzymes or catalytically active fragments; purchased Invitrogen
Experimental: as §1

FLT3 D835Y = biological target: T12, FLT3 D835Y (Homo sapiens, UniProt P36888, D835Y); assay: Kinase Selectivity Assay; settings: read-out: Percent Inhibition at 1 μM; further: ATP at apparent Km or 100 µM
T12 construct: full-length enzymes or catalytically active fragments; purchased Invitrogen
Experimental: as §1

GSK3A (GSK3 alpha) = biological target: T13, GSK3A (GSK3 alpha) (Homo sapiens, UniProt P49840); assay: Kinase Selectivity Assay; settings: read-out: Percent Inhibition at 1 μM; further: ATP at apparent Km or 100 µM
T13 construct: full-length enzymes or catalytically active fragments; purchased Invitrogen
Experimental: as §1

IRAK4 = biological target: T14, IRAK4 (Homo sapiens, UniProt Q9NWZ3); assay: Kinase Selectivity Assay; settings: read-out: Percent Inhibition at 1 μM; further: ATP at apparent Km or 100 µM
T14 construct: full-length enzymes or catalytically active fragments; purchased Invitrogen
Experimental: as §1

KDR (VEGFR2) = biological target: T15, KDR (VEGFR2) (Homo sapiens, UniProt P35968); assay: Kinase Selectivity Assay; settings: read-out: Percent Inhibition at 1 μM; further: ATP at apparent Km or 100 µM
T15 construct: full-length enzymes or catalytically active fragments; purchased Invitrogen
Experimental: as §1

KIT = biological target: T16, KIT (Homo sapiens, UniProt P10721); assay: Kinase Selectivity Assay; settings: read-out: Percent Inhibition at 1 μM; further: ATP at apparent Km or 100 µM
T16 construct: full-length enzymes or catalytically active fragments; purchased Invitrogen
Experimental: as §1

KIT T670I = biological target: T17, KIT T670I (Homo sapiens, UniProt P10721, T670I); assay: Kinase Selectivity Assay; settings: read-out: Percent Inhibition at 1 μM; further: ATP at apparent Km or 100 µM
T17 construct: full-length enzymes or catalytically active fragments; purchased Invitrogen
Experimental: as §1

LYN A = biological target: T18, LYN A (Homo sapiens, UniProt P07948); assay: Kinase Selectivity Assay; settings: read-out: Percent Inhibition at 1 μM; further: ATP at apparent Km or 100 µM
T18 construct: full-length enzymes or catalytically active fragments; purchased Invitrogen
Experimental: as §1

NTRK1 (TRKA) = biological target: T19, NTRK1 (TRKA) (Homo sapiens, UniProt P04629); assay: Kinase Selectivity Assay; settings: read-out: Percent Inhibition at 1 μM; further: ATP at apparent Km or 100 µM
T19 construct: full-length enzymes or catalytically active fragments; purchased Invitrogen
Experimental: as §1

PDGFRA D842V = biological target: T20, PDGFRA D842V (Homo sapiens, UniProt P16234, D842V); assay: Kinase Selectivity Assay; settings: read-out: Percent Inhibition at 1 μM; further: ATP at apparent Km or 100 µM
T20 construct: full-length enzymes or catalytically active fragments; purchased Invitrogen
Experimental: as §1

PDGFRA T674I = biological target: T21, PDGFRA T674I (Homo sapiens, UniProt P16234, T674I); assay: Kinase Selectivity Assay; settings: read-out: Percent Inhibition at 1 μM; further: ATP at apparent Km or 100 µM
T21 construct: full-length enzymes or catalytically active fragments; purchased Invitrogen
Experimental: as §1

ROS1 = biological target: T22, ROS1 (Homo sapiens, UniProt P08922); assay: Kinase Selectivity Assay; settings: read-out: Percent Inhibition at 1 μM; further: ATP at apparent Km or 100 µM
T22 construct: full-length enzymes or catalytically active fragments; purchased Invitrogen
Experimental: as §1

STK6 (Aurora A) = biological target: T23, STK6 (Aurora A) (Homo sapiens, UniProt O14965); assay: Kinase Selectivity Assay; settings: read-out: Percent Inhibition at 1 μM; further: ATP at apparent Km or 100 µM
T23 construct: full-length enzymes or catalytically active fragments; purchased Invitrogen
Experimental: as §1

TBK1 = biological target: T24, TBK1 (Homo sapiens, UniProt Q9UHD2); assay: Kinase Selectivity Assay; settings: read-out: Percent Inhibition at 1 μM; further: ATP at apparent Km or 100 µM
T24 construct: purchased Invitrogen, Carlsbad, Calif
Experimental: as §1

YES1 = biological target: T25, YES1 (Homo sapiens, UniProt P07947); assay: Kinase Selectivity Assay; settings: read-out: Percent Inhibition at 1 μM; further: ATP at apparent Km or 100 µM
T25 construct: purchased Invitrogen, Carlsbad, Calif
Experimental: as §1

T7 sequence (P07333 20-972): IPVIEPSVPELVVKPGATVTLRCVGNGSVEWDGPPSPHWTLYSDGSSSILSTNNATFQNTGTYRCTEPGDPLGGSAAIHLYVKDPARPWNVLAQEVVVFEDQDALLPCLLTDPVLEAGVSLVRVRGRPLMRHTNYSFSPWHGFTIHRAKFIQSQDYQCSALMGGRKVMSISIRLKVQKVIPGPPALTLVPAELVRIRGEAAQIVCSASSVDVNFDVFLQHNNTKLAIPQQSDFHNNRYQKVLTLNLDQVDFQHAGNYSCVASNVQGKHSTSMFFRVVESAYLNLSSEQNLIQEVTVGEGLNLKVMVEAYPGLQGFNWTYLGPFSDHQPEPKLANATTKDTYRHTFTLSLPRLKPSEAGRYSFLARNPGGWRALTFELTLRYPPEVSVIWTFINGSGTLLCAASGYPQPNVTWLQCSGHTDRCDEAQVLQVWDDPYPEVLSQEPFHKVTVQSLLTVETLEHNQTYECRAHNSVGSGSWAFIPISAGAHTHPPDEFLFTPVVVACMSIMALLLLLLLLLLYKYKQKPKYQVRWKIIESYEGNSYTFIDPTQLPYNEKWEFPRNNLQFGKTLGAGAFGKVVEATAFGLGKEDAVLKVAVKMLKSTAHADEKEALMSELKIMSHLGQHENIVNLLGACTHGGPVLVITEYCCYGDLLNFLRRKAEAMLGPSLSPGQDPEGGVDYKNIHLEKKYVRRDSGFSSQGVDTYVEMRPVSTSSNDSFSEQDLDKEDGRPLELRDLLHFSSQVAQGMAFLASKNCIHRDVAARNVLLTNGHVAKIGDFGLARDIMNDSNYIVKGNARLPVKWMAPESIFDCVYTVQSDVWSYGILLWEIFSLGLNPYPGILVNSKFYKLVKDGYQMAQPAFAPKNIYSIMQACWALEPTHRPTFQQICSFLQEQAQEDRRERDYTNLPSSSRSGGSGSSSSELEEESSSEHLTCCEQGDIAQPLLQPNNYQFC
T5 sequence (Q06187 whole entry): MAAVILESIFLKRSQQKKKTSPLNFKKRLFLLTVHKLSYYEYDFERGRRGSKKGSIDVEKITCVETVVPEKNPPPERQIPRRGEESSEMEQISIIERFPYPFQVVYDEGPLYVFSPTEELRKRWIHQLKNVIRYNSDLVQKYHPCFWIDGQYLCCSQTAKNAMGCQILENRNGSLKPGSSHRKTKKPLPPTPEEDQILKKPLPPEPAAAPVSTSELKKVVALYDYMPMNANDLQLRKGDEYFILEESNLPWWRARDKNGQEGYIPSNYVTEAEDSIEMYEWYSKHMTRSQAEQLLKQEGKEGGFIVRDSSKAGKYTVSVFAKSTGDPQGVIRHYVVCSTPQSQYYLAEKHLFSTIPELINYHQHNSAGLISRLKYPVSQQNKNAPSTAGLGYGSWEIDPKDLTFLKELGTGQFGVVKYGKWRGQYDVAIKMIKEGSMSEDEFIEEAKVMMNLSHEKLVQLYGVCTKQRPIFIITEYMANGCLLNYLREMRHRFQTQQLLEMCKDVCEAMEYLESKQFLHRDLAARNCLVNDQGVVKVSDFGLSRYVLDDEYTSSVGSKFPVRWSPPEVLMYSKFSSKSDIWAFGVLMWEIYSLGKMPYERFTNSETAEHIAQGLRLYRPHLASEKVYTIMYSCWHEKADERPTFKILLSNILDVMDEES
T16 sequence (P10721 26-976): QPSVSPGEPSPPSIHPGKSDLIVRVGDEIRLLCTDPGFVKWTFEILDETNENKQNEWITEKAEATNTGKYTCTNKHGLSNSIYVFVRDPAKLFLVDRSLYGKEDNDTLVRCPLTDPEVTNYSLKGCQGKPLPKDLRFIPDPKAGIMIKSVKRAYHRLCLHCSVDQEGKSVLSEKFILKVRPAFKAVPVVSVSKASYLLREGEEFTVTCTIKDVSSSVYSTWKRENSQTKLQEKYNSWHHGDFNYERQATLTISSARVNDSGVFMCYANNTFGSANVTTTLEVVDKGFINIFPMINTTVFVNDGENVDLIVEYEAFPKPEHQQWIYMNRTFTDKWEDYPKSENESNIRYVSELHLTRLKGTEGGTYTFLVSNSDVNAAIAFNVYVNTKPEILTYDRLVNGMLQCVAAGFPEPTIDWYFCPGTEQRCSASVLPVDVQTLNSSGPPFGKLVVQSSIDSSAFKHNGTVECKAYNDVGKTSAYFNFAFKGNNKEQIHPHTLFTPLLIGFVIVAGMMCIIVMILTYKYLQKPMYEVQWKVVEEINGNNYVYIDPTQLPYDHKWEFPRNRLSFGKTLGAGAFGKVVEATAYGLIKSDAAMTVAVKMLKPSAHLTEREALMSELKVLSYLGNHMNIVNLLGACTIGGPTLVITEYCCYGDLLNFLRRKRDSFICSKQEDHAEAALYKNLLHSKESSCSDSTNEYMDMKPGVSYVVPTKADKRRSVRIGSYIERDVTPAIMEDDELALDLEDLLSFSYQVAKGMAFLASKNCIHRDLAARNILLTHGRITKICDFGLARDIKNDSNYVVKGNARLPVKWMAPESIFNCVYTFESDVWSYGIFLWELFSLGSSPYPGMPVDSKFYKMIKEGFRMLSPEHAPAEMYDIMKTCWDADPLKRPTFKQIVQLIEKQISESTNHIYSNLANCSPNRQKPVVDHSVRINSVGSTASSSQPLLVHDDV
T17 sequence (P10721 26-976 T670I): as the sequence (P10721 26-976) above, with T645I counted along it
T22 sequence (P08922 28-2347): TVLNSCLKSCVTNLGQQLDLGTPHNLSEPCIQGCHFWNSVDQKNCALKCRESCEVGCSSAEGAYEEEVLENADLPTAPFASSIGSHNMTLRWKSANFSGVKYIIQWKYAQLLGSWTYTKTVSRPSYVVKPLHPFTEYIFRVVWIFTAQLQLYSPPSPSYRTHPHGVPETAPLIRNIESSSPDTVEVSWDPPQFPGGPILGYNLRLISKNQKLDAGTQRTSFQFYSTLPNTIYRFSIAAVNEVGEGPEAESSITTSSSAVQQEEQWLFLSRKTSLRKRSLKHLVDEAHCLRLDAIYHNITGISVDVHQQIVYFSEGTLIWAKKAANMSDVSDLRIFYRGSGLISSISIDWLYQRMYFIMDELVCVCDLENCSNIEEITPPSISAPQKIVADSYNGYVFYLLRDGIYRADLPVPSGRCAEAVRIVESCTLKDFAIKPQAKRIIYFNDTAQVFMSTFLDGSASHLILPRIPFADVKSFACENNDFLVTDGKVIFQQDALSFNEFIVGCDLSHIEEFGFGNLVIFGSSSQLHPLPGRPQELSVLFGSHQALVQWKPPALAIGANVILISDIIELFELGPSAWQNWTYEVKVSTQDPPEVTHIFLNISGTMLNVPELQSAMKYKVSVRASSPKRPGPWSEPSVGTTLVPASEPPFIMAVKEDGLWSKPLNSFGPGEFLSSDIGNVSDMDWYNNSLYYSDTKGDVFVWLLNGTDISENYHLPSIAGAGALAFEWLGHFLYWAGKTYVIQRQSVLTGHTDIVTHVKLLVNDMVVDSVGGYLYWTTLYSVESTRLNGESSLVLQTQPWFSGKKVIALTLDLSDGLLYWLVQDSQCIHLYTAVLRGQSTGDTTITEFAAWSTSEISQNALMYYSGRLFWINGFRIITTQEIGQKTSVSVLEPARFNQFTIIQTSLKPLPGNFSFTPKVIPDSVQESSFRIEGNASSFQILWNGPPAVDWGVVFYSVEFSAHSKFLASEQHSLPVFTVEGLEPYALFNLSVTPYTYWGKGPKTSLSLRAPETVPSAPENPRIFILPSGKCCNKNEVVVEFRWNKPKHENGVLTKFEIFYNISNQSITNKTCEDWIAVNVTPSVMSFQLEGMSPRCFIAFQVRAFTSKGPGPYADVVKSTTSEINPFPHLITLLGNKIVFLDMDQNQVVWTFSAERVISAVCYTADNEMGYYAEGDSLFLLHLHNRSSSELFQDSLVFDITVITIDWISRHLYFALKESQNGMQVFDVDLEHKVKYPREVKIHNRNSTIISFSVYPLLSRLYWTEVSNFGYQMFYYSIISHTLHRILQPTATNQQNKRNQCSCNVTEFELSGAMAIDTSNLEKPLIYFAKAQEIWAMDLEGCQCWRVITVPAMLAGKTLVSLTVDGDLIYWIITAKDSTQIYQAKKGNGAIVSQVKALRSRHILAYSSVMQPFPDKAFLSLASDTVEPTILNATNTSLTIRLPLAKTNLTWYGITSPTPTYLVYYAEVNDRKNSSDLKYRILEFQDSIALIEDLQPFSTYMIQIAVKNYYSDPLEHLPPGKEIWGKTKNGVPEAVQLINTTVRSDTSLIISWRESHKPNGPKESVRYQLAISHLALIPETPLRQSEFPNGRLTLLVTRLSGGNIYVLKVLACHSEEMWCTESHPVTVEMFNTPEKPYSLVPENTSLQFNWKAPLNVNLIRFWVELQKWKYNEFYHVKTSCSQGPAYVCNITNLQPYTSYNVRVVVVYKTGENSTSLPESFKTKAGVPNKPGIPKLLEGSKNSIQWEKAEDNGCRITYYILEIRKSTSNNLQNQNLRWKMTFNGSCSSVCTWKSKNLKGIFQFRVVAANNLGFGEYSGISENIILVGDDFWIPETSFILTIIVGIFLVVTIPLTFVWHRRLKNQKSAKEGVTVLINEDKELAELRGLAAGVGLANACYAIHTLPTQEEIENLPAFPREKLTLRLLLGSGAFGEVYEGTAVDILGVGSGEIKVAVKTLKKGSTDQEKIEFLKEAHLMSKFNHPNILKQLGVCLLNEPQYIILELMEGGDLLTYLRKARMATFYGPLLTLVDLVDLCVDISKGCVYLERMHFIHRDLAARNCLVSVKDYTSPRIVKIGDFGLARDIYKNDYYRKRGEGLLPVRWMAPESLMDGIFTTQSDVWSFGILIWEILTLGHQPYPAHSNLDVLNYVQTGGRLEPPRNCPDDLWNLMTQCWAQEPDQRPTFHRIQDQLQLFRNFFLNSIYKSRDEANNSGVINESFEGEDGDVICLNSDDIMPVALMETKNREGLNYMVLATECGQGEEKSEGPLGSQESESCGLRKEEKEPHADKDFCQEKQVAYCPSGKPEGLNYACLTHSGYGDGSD

Structure (SMILES)	inhibition at 100 µM (recombinant Aurora A) [%]	inhibition at 1 µM (AKT1 (PKB alpha)) [%]	inhibition at 1 µM (AURKB (Aurora B)) [%]	inhibition at 1 µM (BLK) [%]	inhibition at 1 µM (BTK) [%]	inhibition at 1 µM (CDK2/cyclin A) [%]	inhibition at 1 µM (CSF1R (FMS)) [%]	inhibition at 1 µM (EPHA1) [%]	inhibition at 1 µM (EPHB1) [%]	inhibition at 1 µM (FGFR2) [%]	inhibition at 1 µM (FLT1 (VEGFR1)) [%]	inhibition at 1 µM (FLT3 D835Y) [%]	inhibition at 1 µM (GSK3A (GSK3 alpha)) [%]	inhibition at 1 µM (IRAK4) [%]	inhibition at 1 µM (KDR (VEGFR2)) [%]	inhibition at 1 µM (KIT) [%]	inhibition at 1 µM (KIT T670I) [%]	inhibition at 1 µM (LYN A) [%]	inhibition at 1 µM (NTRK1 (TRKA)) [%]	inhibition at 1 µM (PDGFRA D842V) [%]	further results
Cc1cc(Nc2nc(/C=C/c3ccccc3)nc(N3CCN(C)CC3)c2N)[nH]n1 [Example 10, 6-(4-methylpiperazin-1-yl)-N-(3-methyl-1H-pyrazol-5-yl)-2-[(E)-2-phenylvinyl]pyrimidin-4,5-diamine]	100	9	37	67	28	8	80	52	32	53	25	80	38	14	88	39	44	63	92	9	inhibition at 1 µM (PDGFRA T674I): 65%; inhibition at 1 µM (ROS1): 54%; inhibition at 1 µM (STK6 (Aurora A)): 83%; inhibition at 1 µM (TBK1): 73%; inhibition at 1 µM (YES1): 80%
Cc1cc(Nc2cc(N3CCN(C)CC3)nc(/C=C/c3ccccc3)n2)n[nH]1 [Example 31, 6-(4-methylpiperazin-1-yl)-N-(3-methyl-1H-pyrazol-5-yl)-2-[(E)-2-phenylvinyl]pyrimidin-4-amine]	100	5	75	90	63	8	97	77	61	86	53	98	36	63	96	75	79	84	96	24	inhibition at 1 µM (PDGFRA T674I): 88%; inhibition at 1 µM (ROS1): 65%; inhibition at 1 µM (STK6 (Aurora A)): 96%; inhibition at 1 µM (TBK1): 80%; inhibition at 1 µM (YES1): 88%
